Assay results published in PMC4300089, “Structure-Guided Design of Selective Epac1 and Epac2 Agonists” (PLoS Biology, 2015).

Key:
Epac1 = target: T1, Epac1 (Homo sapiens, UniProt O95398); test: Cellular Epac activity: Rap•GTP levels in U2OS cells stably expressing Epac1; format: cell-based; conditions: for rel. RapGTP: relative to induction with forskolin and IBMX, Fig. 6C
T1 construct: pBabe-Flag-Epac1 (Epac1, homo sapiens, amino acids 1–881); expressed in transfected cells; host or cells: U2OS
T1 sequence (O95398 1-881 isoform O95398-3): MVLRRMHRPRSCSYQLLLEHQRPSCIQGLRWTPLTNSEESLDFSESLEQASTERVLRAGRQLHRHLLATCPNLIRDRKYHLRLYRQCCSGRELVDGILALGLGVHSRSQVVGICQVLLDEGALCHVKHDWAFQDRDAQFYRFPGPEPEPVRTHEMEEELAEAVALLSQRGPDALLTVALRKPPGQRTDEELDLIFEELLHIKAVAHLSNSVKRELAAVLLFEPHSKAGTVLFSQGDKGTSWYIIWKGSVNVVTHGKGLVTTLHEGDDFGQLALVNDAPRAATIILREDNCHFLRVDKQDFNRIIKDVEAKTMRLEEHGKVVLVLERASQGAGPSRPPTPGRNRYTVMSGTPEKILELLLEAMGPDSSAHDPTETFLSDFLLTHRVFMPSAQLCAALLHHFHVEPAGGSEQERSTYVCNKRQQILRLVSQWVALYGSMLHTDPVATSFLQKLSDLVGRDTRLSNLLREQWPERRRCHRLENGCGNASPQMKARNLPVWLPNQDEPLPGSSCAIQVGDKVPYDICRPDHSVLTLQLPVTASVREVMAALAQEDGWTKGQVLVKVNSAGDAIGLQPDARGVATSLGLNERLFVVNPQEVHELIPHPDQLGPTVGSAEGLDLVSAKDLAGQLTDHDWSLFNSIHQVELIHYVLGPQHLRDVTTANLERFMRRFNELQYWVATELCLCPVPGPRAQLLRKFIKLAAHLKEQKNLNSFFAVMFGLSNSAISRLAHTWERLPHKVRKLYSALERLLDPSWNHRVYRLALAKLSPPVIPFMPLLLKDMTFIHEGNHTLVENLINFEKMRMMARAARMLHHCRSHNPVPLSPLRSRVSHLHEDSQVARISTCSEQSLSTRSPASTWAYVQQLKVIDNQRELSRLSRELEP
Method: Rap•GTP levels were determined by precipitating GTP-bound Rap specifically from cell lysates and subsequent western Blotting with an α-Rap antibody (Santa Cruz Biotechnology). To generate stable cell lines, U2OS cells were transfected with pBabe-Flag-Epac1 (Epac1, homo sapiens, amino acids 1–881) or pBabe-Flag-Epac2 (Epac2, mus musculus, amino acids 1–993), selected for Epac expression and maintained under selection with 2 mg/l puromycin. The cells were cultured according to standard protocols. The activity of PKA was determined by western blotting with a monoclonal α-VASP antibody (BD Transduction Laboratories). Blots were developed by enhanced chemiluminescence (ECL) and the use of X-ray films; for quantification films were scanned. The intensities of the Rap•GTP bands and the upper band of VASP (P-VASP) were determined for each condition in ImageJ and normalized to the stimulation with forskolin and IBMX for each blot.

Epac2^Δ280 = target: T2, Epac2^Δ280 (Mus musculus, UniProt Q9EQZ6); test: Epac activation assay (Rap1B•mGDP fluorescence nucleotide exchange), Epac2^Δ280; format: biochemical; conditions: for AC50 / Rel. kmax: Epac2^Δ280; for Rel. kmax: maximal activity relative to cAMP
T2 construct: made in house
T2 sequence (Q9EQZ6 281-993 isoform Q9EQZ6-3): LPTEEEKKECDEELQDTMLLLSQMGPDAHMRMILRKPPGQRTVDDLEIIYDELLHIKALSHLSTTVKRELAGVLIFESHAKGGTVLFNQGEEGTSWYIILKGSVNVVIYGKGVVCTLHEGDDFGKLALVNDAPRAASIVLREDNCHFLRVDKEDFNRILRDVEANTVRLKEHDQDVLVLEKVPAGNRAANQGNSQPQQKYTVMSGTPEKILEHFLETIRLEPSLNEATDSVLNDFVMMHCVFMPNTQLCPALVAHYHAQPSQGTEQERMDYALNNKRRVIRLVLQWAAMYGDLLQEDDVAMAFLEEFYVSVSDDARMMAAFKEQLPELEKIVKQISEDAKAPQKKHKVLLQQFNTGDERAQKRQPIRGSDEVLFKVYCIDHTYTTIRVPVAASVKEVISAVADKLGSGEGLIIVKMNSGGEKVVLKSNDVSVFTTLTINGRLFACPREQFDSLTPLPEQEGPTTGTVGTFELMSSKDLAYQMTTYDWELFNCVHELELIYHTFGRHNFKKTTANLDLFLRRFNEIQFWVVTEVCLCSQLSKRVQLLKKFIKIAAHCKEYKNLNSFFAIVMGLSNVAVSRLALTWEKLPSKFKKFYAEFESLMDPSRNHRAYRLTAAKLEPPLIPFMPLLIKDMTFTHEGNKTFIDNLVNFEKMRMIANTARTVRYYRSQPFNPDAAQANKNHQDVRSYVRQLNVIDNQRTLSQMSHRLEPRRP
Method: Murine Epac2 was used as all previous structural studies were performed with it.
The activity of Epac was determined by a fluorescence assay. […] The fluorescence intensity of Rap1B•mGDP is approximately twice that of free mGDP, and thus, nucleotide exchange can be observed as a decay in fluorescence upon the addition of excess unlabeled GDP.

Row | Compound | rel. RapGTP (Epac1) | kobs (Epac2^Δ280; 0.05 μM compound) [s⁻¹] | kobs (Epac2^Δ280; 0.08 μM compound) [s⁻¹] | kobs (Epac2^Δ280; 0.1 μM compound) [s⁻¹] | kobs (Epac2^Δ280; 0.2 μM compound) [s⁻¹] | kobs (Epac2^Δ280; 0.3 μM compound) [s⁻¹] | kobs (Epac2^Δ280; 0.4 μM compound) [s⁻¹] | kobs (Epac2^Δ280; 0.5 μM compound) [s⁻¹] | kobs (Epac2^Δ280; 0.6 μM compound) [s⁻¹] | kobs (Epac2^Δ280; 0.7 μM compound) [s⁻¹] | AC50 (Epac2^Δ280) [nM] | Rel. kmax (Epac2^Δ280) | kobs (Epac2^Δ280; 0.8 μM compound) [s⁻¹] | kobs (Epac2^Δ280; 1 μM compound) [s⁻¹] | kobs (Epac2^Δ280; 2 μM compound) [s⁻¹] | kobs (Epac2^Δ280; 3 μM compound) [s⁻¹] | kobs (Epac2^Δ280; 4 μM compound) [s⁻¹] | kobs (Epac2^Δ280; 5 μM compound) [s⁻¹] | kobs (Epac2^Δ280; 6 μM compound) [s⁻¹] | kobs (Epac2^Δ280; 7 μM compound) [s⁻¹] | also measured
1 | Nc1ncnc2c1nc(SCc1ccccc1)n2[C@@H]1O[C@@H]2CO[P@](O)(=S)O[C@H]2[C@H]1O [S-220, Sp-8-BnT-cAMPS] | 0.6097 | 0.000508 | 0.000721 | 0.000827 | 0.00131 | 0.00149 | 0.00167 | 0.00155 | 0.00184 | 0.00188 | 100 | 7.7 |  |  |  |  |  |  |  |  | activation of Epac1 in cells (Epac1): only minor effects; kobs (Epac2^Δ280; 0.04 μM compound): 0.000468 s⁻¹; kobs (Epac2^Δ280; 0.06 μM compound): 0.000631 s⁻¹; kobs (Epac2^Δ280; 0.07 μM compound): 0.000864 s⁻¹
2 | Nc1ncnc2c1nc(Sc1ccc(Cl)cc1)n2[C@@H]1O[C@@H]2COP(=O)(O)O[C@H]2[C@H]1O [L-026, 8-pCPT-cAMP] | 1.1255 |  |  |  |  |  |  |  |  |  | 80 | 0.5 |  |  |  |  |  |  |  |  | 
3 | COC1C2OP(=O)(O)OCC2OC1n1c(Sc2ccc(Cl)cc2)nc2c(N)ncnc21 [D-007, 8-pCPT-2′-O-Me-cAMP, reference compound] | 1.65 |  |  |  |  |  |  |  |  |  | 3500 | 0.8 |  |  |  |  |  |  |  |  | activation of Epac1 in cells (Epac1): strongly activated
4 | Nc1ncnc2c1ncn2C1OC2COP(O)(=S)OC2C1O (centres unmarked) [S-000, Sp-cAMPS] |  | 3.7e-05 | 4.4e-05 | 4.8e-05 | 7.3e-05 | 9.9e-05 | 0.000122 | 0.000139 | 0.000141 | 0.000159 | 2800 | 2.5 | 0.000171 | 0.000175 | 0.000357 | 0.000431 | 0.000482 | 0.000505 | 0.000495 | 0.000524 | kobs (Epac2^Δ280; 0.01 μM compound): 2.4e-05 s⁻¹; kobs (Epac2^Δ280; 8 μM compound): 0.000525 s⁻¹; kobs (Epac2^Δ280; 10 μM compound): 0.000559 s⁻¹; kobs (Epac2^Δ280; 20 μM compound): 0.0007 s⁻¹; kobs (Epac2^Δ280; 30 μM compound): 0.000741 s⁻¹; kobs (Epac2^Δ280; 40 μM compound): 0.000742 s⁻¹; kobs (Epac2^Δ280; 50 μM compound): 0.000724 s⁻¹; kobs (Epac2^Δ280; 60 μM compound): 0.000763 s⁻¹; kobs (Epac2^Δ280; 70 μM compound): 0.000779 s⁻¹; kobs (Epac2^Δ280; 80 μM compound): 0.000793 s⁻¹; kobs (Epac2^Δ280; 100 μM compound): 0.000771 s⁻¹
5 | Nc1ncnc2c1ncn2[C@@H]1O[C@@H]2COP(=O)(O)O[C@H]2[C@H]1O [cAMP, reference compound] |  |  |  |  |  |  | 9.9e-05 | 0.000111 | 0.000113 | 0.000125 |  |  | 0.000132 | 0.000141 | 0.000207 | 0.000246 | 0.000263 | 0.000273 | 0.000293 | 0.000298 | kobs (Epac2^Δ280; 8 μM compound): 0.000303 s⁻¹; kobs (Epac2^Δ280; 10 μM compound): 0.00031 s⁻¹; kobs (Epac2^Δ280; 20 μM compound): 0.000328 s⁻¹; kobs (Epac2^Δ280; 30 μM compound): 0.000331 s⁻¹; share of cAMP bound protein still in an inactive conformation (Epac2^Δ280; Epac2, assuming the most efficient activators shift the equilibrium fully): ~85%
6 | Cc1ccc(CSc2nc3c(N)ncnc3n2[C@@H]2O[C@@H]3CO[P@](O)(=S)O[C@H]3[C@H]2O)cc1 [S-230, Sp-8-pMeBnT-cAMPS] |  | 6.5e-05 | 8.9e-05 | 0.000108 | 0.000191 | 0.000259 | 0.000337 | 0.000361 | 0.000448 | 0.000484 | 70 | 6.4 | 0.000517 | 0.000599 | 0.000852 | 0.00104 | 0.00107 | 0.00111 | 0.00117 | 0.00124 | kobs (Epac2^Δ280; 0.01 μM compound): 3.1e-05 s⁻¹; kobs (Epac2^Δ280; 0.03 μM compound): 5.1e-05 s⁻¹; kobs (Epac2^Δ280; 0.04 μM compound): 5.8e-05 s⁻¹; kobs (Epac2^Δ280; 0.06 μM compound): 6.9e-05 s⁻¹; kobs (Epac2^Δ280; 0.07 μM compound): 7.9e-05 s⁻¹; kobs (Epac2^Δ280; 8 μM compound): 0.00123 s⁻¹; kobs (Epac2^Δ280; 10 μM compound): 0.00132 s⁻¹; kobs (Epac2^Δ280; 20 μM compound): 0.00148 s⁻¹; kobs (Epac2^Δ280; 30 μM compound): 0.00149 s⁻¹; kobs (Epac2^Δ280; 40 μM compound): 0.00149 s⁻¹; kobs (Epac2^Δ280; 50 μM compound): 0.00145 s⁻¹; kobs (Epac2^Δ280; 60 μM compound): 0.00145 s⁻¹; kobs (Epac2^Δ280; 70 μM compound): 0.00142 s⁻¹; kobs (Epac2^Δ280; 80 μM compound): 0.00143 s⁻¹; kobs (Epac2^Δ280; 100 μM compound): 0.00145 s⁻¹
